Laboratory results taken from patent US11325899B2, “Benzofurane and benzothiophene derivatives as PGE2 receptor modulators” (IDORSIA PHARMACEUTICALS LTD, priority 2017, dated 2022).

How the values were obtained:
PTGER2 (EP2) = target: T1, PTGER2 (EP2) (Homo sapiens, UniProt P43116); assay: hEP2 b-arrestin assay (PathHunter HEK 293 PTGER2 b-arrestin cells); assay type: cell-based; details: antagonistic activity, beta-arrestin assay; read-out: hEP2 b-arr IC50
T1 construct: host or cells: HEK 293 (PathHunter PTGER2 b-arrestin cell line)
Procedure: (§1) The antagonistic activities of the compounds of formula (I) on the EP2 and EP4 receptors are determined in accordance with the following experimental method.
(§2) The assay is using the PathHunter™ HEK 293 PTGER2 and PTGER4 b-arrestin cell lines from DiscoverX. The system is based on the Enzyme Fragment Complementation Technology. Two complementing fragments of the b-galactosidase enzyme are expressed within stably transfected cells. The larger portion of b-gal, termed EA for Enzyme Acceptor, is fused to the C-terminus of b-arrestin 2. The smaller fragment, termed ProLink™ tag, is fused to PTGER2 (EP2) or PTRGER4 (EP4) at the C-terminus. Upon activation, b-arrestin is recruited which forces the interaction of ProLink and EA, allowing complementation of the two fragments of b-gal and the formation of a functional enzyme which is capable of hydrolysing the substrate and generating a chemiluminescent signal.
(§3) The HEK 293 PTGER2 b-arrestin cells (DiscoverX 93-021-4C1) are detached from culture dishes with a cell dissociation buffer (Invitrogen, 13151-014), and collected in growing medium (GM: DMEM+Glutamax-I (Invitrogen 32430)/10% FCS, 1% Penicilin/streptomycin). 5000 cells per well of a 384 well plate (white with white bottom Greiner 781080) are seeded in 20 ul per well of GM. Plate is incubated at 37° C., 5% C02 for 24 hours.
(§4) Stock solutions of test compounds are made at a concentration of 10 mM in DMSO, and serially diluted in DMSO to concentrations required for inhibition dose response curves (tested concentration range 10 μM-2 nM or 1 μM-0.2 nM).
PGE2 (Cayman 14010, stock solution: 10 mM in DMSO) is used as agonist at 5 μM final concentration, corresponding to EC80.
Five microliters of diluted compounds are transferred into the assay plate. Plate is pre-incubated 15 minutes at 37° C. Then five microliters of PGE2 (final conc. 5 μM) are transferred into the assay plate. Plate is incubated 120 minutes at 37° C.
(§5) PathHunter Glo Detection Kit components are thawed and mix according to manufacturer's instructions: 1 part Galacton Star Substrate with 5 parts Emerald II™ Solution, and 19 parts of PathHunter Cell Assay Buffer, respectively. Twelve μl of reagent are transferred to the assay plate and incubate for 1 hour at room temperature in the dark. Luminescence counts are read on a BMG Fluostar Optima reader according to manufacturer's instructions.
(§6) For each compound concentration calculate of the percentage of activity compared to DMSO control value as average±STDEV. (each concentration is measured in duplicate)
(§7) IC50 values and curves are generated with XLfit software (IDBS) using Dose-Response One Site model 203. When compounds were measured multiple times, mean values are given.

PTGER4 (EP4) = target: T2, PTGER4 (EP4) (Homo sapiens, UniProt P35408); assay: hEP4 b-arrestin assay (PathHunter HEK 293 PTGER4 b-arrestin cells); assay type: cell-based; details: antagonistic activity, beta-arrestin assay; read-out: hEP4 b-arr IC50
T2 construct: host or cells: HEK 293 (PathHunter PTGER4 b-arrestin cell line)
Procedure: as §1, §2
as §3, with “PTGER4” for “PTGER2”, “93-030-4C1)” for “93-021-4C1)”
as §4
PGE2 (Cayman 14010, stock solution: 100 uM in DMSO) is used as agonist at 20 nM final concentration, corresponding to EC80.
Five microliters of diluted compounds are transferred into the assay plate. Plate is pre-incubated 15 minutes at 37° C. Then five microliters of PGE2 (final conc. 20 nM) are transferred into the assay plate. Plate is incubated 120 minutes at 37° C.
as §5, §6, §7

T1 sequence (P43116 whole entry): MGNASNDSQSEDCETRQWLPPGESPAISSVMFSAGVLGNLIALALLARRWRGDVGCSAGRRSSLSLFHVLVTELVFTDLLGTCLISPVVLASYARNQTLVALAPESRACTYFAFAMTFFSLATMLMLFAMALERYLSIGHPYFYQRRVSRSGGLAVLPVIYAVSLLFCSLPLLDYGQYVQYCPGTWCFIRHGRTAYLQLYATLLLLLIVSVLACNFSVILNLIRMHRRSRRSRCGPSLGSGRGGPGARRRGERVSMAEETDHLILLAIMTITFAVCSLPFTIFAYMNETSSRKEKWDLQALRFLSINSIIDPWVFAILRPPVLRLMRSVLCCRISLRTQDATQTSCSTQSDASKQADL
T2 sequence (P35408 whole entry): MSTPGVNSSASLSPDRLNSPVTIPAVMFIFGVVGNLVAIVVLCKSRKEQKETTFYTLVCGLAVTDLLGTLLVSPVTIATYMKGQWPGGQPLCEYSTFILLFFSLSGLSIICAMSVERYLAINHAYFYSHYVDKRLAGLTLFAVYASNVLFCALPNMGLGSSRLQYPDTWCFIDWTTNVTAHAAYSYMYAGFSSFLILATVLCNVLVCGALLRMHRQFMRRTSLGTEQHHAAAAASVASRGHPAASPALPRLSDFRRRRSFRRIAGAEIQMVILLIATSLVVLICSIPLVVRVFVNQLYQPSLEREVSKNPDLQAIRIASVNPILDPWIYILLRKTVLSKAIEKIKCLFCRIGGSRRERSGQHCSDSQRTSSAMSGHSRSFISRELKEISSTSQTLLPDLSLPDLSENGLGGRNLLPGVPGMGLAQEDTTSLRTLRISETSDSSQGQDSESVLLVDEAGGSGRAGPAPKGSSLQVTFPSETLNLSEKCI

| Compound | IC50 (PTGER2 (EP2)) | IC50 (PTGER4 (EP4)) |
| --- | --- | --- |
| (4-{6-[2-(2-Cyano-benzo[b]thiophen-3-yl)-ethylamino]-pyrimidin-4-yl}-2-ethoxy-phenyl)-acetic acid [Example 175] | 89 nM | 492 nM |
| COc1cc(-c2cc(NCCc3c(C#N)sc4ccccc34)ncn2)ccc1CC(=O)O [Example 174, (4-{6-[2-(2-Cyano-benzo[b]thiophen-3-yl)-ethylamino]-pyrimidin-4-yl}-2-methoxy-phenyl)-acetic acid] | 135 nM | 723 nM |
| Cc1sc2c(C)cc(F)cc2c1CCNc1cc(-c2ccc(C(N)=O)cc2)ncn1 [Example 178, 4-{6-[2-(5-Fluoro-2,7-dimethyl-benzo[b]thiophen-3-yl)-ethylamino]-pyrimidin-4-yl}-benzamide] | 48 nM | 331 nM |
| COc1cc(-c2cc(NCCc3c(C)sc4c(C)cc(F)cc34)ncn2)ccc1-c1cc(O)no1 [Example 203, 5-(4-{6-[2-(5-Fluoro-2,7-dimethyl-benzo[b]thiophen-3-yl)-ethylamino]-pyrimidin-4-yl}-2-methoxy-phenyl)-isoxazol-3-ol [tautomeric form: 5-(4-(6-((2-(5-fluoro-2,7-dimethylbenzo[b]thiophen-3-yl)ethyl)amino)pyrimidin-4-yl)-2-methoxyphenyl)isoxazol-3(2H)-one]] | 16 nM | 239 nM |
| Cc1sc2c(C)cc(F)cc2c1CCNc1cc(-c2cc(OC(F)F)c(CC(=O)O)s2)ncn1 [Example 220, (3-Difluoromethoxy-5-{6-[2-(5-fluoro-2,7-dimethyl-benzo[b]thiophen-3-yl)-ethylamino]-pyrimidin-4-yl}-thiophen-2-yl)-acetic acid] | 44 nM | 407 nM |
| CCCc1cc(-c2cc(NCCc3c(C)sc4c(C)cc(F)cc34)ncn2)sc1CC(=O)O [Example 219, (5-{6-[2-(5-Fluoro-2,7-dimethyl-benzo[b]thiophen-3-yl)-ethylamino]-pyrimidin-4-yl}-3-propyl-thiophen-2-yl)-acetic acid] | 41 nM | 211 nM |
| CCc1cc(-c2cc(NCCc3c(C)sc4c(C)cc(F)cc34)ncn2)sc1CC(=O)O [Example 197, (3-Ethyl-5-{6-[2-(5-fluoro-2,7-dimethyl-benzo[b]thiophen-3-yl)-ethylamino]-pyrimidin-4-yl}-thiophen-2-yl)-acetic acid] | 85 nM | 146 nM |
| CCOc1cc(-c2cc(NCCc3c(C)sc4c(C)cc(F)cc34)ncn2)ccc1NC=O [Example 191, N-(2-Ethoxy-4-{6-[2-(5-fluoro-2,7-dimethyl-benzo[b]thiophen-3-yl)-ethylamino]-pyrimidin-4-yl}-phenyl)-formamide] | 45 nM | 135 nM |
| Cc1sc2c(C)cc(F)cc2c1CCNc1cc(-c2ccc(-c3c(O)c(=O)c3=O)cc2)ncn1 [Example 180, 3-(4-{6-[2-(5-Fluoro-2,7-dimethyl-benzo[b]thiophen-3-yl)-ethylamino]-pyrimidin-4-yl}-phenyl)-4-hydroxy-cyclobut-3-ene-1,2-dione] | 20 nM | 120 nM |
| Cc1sc2c(C)cc(F)cc2c1CCNc1cc(-c2cc3cccc(C(=O)O)c3[nH]2)ncn1 [Example 221, 2-{6-[2-(5-Fluoro-2,7-dimethyl-benzo[b]thiophen-3-yl)-ethylamino]-pyrimidin-4-yl}-1H-indole-7-carboxylic acid] | 24 nM | 908 nM |

Further lines, results first:

| IC50 (PTGER2 (EP2)) | IC50 (PTGER4 (EP4)) | Compound |
| --- | --- | --- |
| 35 nM | 487 nM | COc1cc(-c2cc(NCCc3c(C)sc4c(C)cc(F)cc34)ncn2)ccc1CCC(=O)O [Example 223, 3-(4-{6-[2-(5-Fluoro-2,7-dimethyl-benzo[b]thiophen-3-yl)-ethylamino]-pyrimidin-4-yl}-2-methoxy-phenyl)-propionic acid] |
| 62 nM | 837 nM | CCCc1cc(-c2cc(NCCc3c(C)sc4c(C)cc(F)cc34)ncn2)ccc1C(=O)NCCOC [Example 208, 4-{6-[2-(5-Fluoro-2,7-dimethyl-benzo[b]thiophen-3-yl)-ethylamino]-pyrimidin-4-yl}-N-(2-methoxy-ethyl)-2-propyl-benzamide] |
| 11 nM | 667 nM | CCOc1cc(-c2cc(NCCc3c(C)sc4c(C)cc(F)cc34)ncn2)ccc1C(=O)NC [Example 212, 2-Ethoxy-4-{6-[2-(5-fluoro-2,7-dimethyl-benzo[b]thiophen-3-yl)-ethylamino]-pyrimidin-4-yl}-N-methyl-benzamide] |
| 8 nM | 280 nM | CCCc1cc(-c2cc(NCCc3c(C)sc4c(C)cc(F)cc34)ncn2)ccc1C(=O)NCCO [Example 209, 4-{6-[2-(5-Fluoro-2,7-dimethyl-benzo[b]thiophen-3-yl)-ethylamino]-pyrimidin-4-yl}-N-(2-hydroxy-ethyl)-2-propyl-benzamide] |
| 72 nM | 261 nM | Cc1sc2c(C)cc(F)cc2c1CCNc1cc(-c2ccc(CC(=O)O)c(OC(C)C)c2)ncn1 [Example 192, (4-{6-[2-(5-Fluoro-2,7-dimethyl-benzo[b]thiophen-3-yl)-ethylamino]-pyrimidin-4-yl}-2-isopropoxy-phenyl)-acetic acid] |
| 50 nM | 134 nM | CCc1cc(-c2cc(NCCc3c(C)sc4c(C)cc(F)cc34)ncn2)ccc1CC(=O)O [Example 185, (2-Ethyl-4-{6-[2-(5-fluoro-2,7-dimethyl-benzo[b]thiophen-3-yl)-ethylamino]-pyrimidin-4-yl}-phenyl)-acetic acid] |
| 8 nM | 184 nM | CCSc1cc(-c2cc(NCCc3c(C)sc4c(C)cc(F)cc34)ncn2)ccc1C(=O)O [Example 179, 2-Ethylsulfanyl-4-{6-[2-(5-fluoro-2,7-dimethyl-benzo[b]thiophen-3-yl)-ethylamino]-pyrimidin-4-yl}-benzoic acid] |
| 30 nM | 367 nM | CCOc1cc(-c2cc(NCCc3c(C)sc4c(C)cc(F)cc34)ncn2)ccc1C(=O)NCCO [Example 211, 2-Ethoxy-4-{6-[2-(5-fluoro-2,7-dimethyl-benzo[b]thiophen-3-yl)-ethylamino]-pyrimidin-4-yl}-N-(2-hydroxy-ethyl)-benzamide] |
| 26 nM | 335 nM | CCCc1cc(-c2cc(NCCc3c(C)sc4c(C)cc(F)cc34)ncn2)ccc1C(=O)NCC(C)(C)O [Example 207, 4-{6-[2-(5-Fluoro-2,7-dimethyl-benzo[b]thiophen-3-yl)-ethylamino]-pyrimidin-4-yl}-N-(2-hydroxy-2-methyl-propyl)-2-propyl-benzamide] |
